Assay results reported in patent publication US6602862B1, “1-Amino-alkylcyclohexanes as trypanocidal agents” (Merz Pharma GmbH & Co., KGAA, priority 2000, dated 2003).
Read-outs that look alike come from different tables or passages of the source. Each block holds one compound with its values, some of them ahead of it.

What was measured:
[1] = tested on: Bloodstream form T-brucei (strain 427); assay: Growth inhibition of cultured bloodstream form T. brucei, 3 days in presence of test compounds; conditions: for inhibition at 5 µg/mL: read-out: (Inhibition) (5 μg ml^−1); for (Inhibition) (5 μg ml^−1): preliminary screen at 5 μg ml^−1, 3 days
[2] = tested on: bloodstream form of the African trypanosome, Trypanosoma brucei; conditions: reported recently; cited from earlier work
[3] = patients, advanced stage of the disease; cited from earlier work
[4] = concentration inhibiting growth by 50%, 3 days, 37°, pH 7.4, ±SD
[5] = concentration inhibiting growth by 90%, 3 days, 37°, pH 7.4, ±SD, ++ = six experiments
[6] = Trypanosoma brucei, 72 h, pH 7.4
[7] = Trypanosoma brucei, 72 h, read-out: IC90

IC50 [1, 4]: 0.22 ± 0.02 µg/mL
IC90 [1, 5]: 0.29 ± 0.01 µg/mL
Compound: CC(C)(N)CC1CC(C)(C)CC(C)(C)C1 [Compound 645, 2-Methyl-1-(3,3,5,5-tetramethylcyclohexyl)propyl-2-amine]

Compound: CCCC1(N)CC(C)(C)CC(C)(C)C1 [Compound 601, 1-Amino-1-propyl-3,3,5,5-tetramethylcyclohexane]
IC50 [1, 6]: 1.43 ± 0.08 µg/mL
IC90 [1, 6]: 1.87 ± 0.02 µg/mL
IC90 [1, 7]: < 2 µg/mL

IC50 [1, 6]: 2.92 ± 0.19 µg/mL
IC90 [1, 6]: 3.8 ± 0.07 µg/mL
Compound: CC[C@@H]1CC(C)(C)C[C@](C)(N)C1 (relative stereo) [Compound 632, 1-Amino-1,3,3-trimethyl-5 (cis) ethylcyclohexane]

Compound: CC(N)C12CC3CC(CC(C3)C1)C2 (stereo not drawn) [rimantadine]
sensitivity of bloodstream form T. brucei [2]: sensitive

Compound: CCC1(C)CCCC(C)(N)C1 (stereo not drawn) [Compound 620, 1-Amino-1,3-dimethyl-3-ethylcyclohexane]
inhibition at 5 µg/mL ([1]; Trypanosoma brucei, 72 h): 25%

Compound: CC1(C)CCCC(C)(N)C1 (stereo not drawn) [Compound 621, 1-Amino-1,3,3-trimethylcyclohexane]
inhibition at 5 µg/mL ([1]; Trypanosoma brucei, 72 h): 40%

IC50 [1, 6]: 0.55 ± 0.11 µg/mL
IC90 [1, 6]: 0.88 ± 0.09 µg/mL
Compound: CCCC1(C)CC(C)(C)CC(C)(N)C1 (stereo not drawn) [Compound 614, 3-Propyl-1,3,5,5-Tetramethylcyclohexylamine]

IC50 [1, 4]: 1.54 ± 0.02 µg/mL
IC90 [1, 5]: 1.95 ± 0.03 µg/mL
Compound: CCCC1CCCC(C)(N)C1 (stereo not drawn) [Compound 628, 1-Methyl-3-cis-propylcyclohexylamine]

IC50 [1, 6]: 0.23 ± 0.02 µg/mL
IC90 [1, 6]: 0.31 ± 0.03 µg/mL
Compound: CC1(C)CC(CCN)CC(C)(C)C1 [Compound 644, 2-(3,3,5,5-Tetramethylcyclohexyl)ethylamine]

IC50 [1, 6]: 1.44 ± 0.09 µg/mL
IC90 [1, 6]: 1.89 ± 0.02 µg/mL
IC90 [1, 7]: < 2 µg/mL
Compound: CC1(C)CC(CN)CC(C)(C)C1 [Compound 580, 3,3,5,5-Tetramethylcyclohexylmethylamine]

Compound: CCC1CC(C)(C)CC(C)(N)C1 (stereo not drawn) [Compound 633, 1-Amino-1,3,3-trimethyl-5 (trans) ethylcyclohexane]
inhibition at 5 µg/mL ([1]; Trypanosoma brucei, 72 h): 68%

Compound: CC1(N)CCCCC1 [Compound 641, 1-Amino-1-methylcyclohexane]
inhibition at 5 µg/mL ([1]; Trypanosoma brucei, 72 h): 86%

IC50 [1, 6]: 1.37 ± 0.19 µg/mL
IC90 [1, 6]: 1.96 ± 0.03 µg/mL
IC90 [1, 7]: < 2 µg/mL
Compound: CCNC1(C)CC(C)(C)CC(C)(C)C1 [Compound 639, N-Ethyl-1,3,3,5,5-pentamethylcyclohexylamine]

Compound: CC[C@H]1CCC[C@](C)(N)C1 (relative stereo) [Compound 629, 1-Amino-1-methyl-3 (trans) ethylcyclohexane]
inhibition at 5 µg/mL ([1]; Trypanosoma brucei, 72 h): 2%

Compound: CC1(C)CC(C)(C)CC(C)(CCN)C1 [Compound 662, 2-(1,3,3,5,5-Pentamethylcyclohexyl-1) ethylamine]
IC50 [1, 4]: 0.24 ± 0.03 µg/mL
IC90 [1, 5]: 0.38 ± 0.08++ μg ml−1

Compound: CN(C)C1(C)CC(C)(C)CC(C)(C)C1 [Compound 642, N,N-dimethyl-1-amino-1,3,3,5,5-pentamethylcyclohexane]
inhibition at 5 µg/mL ([1]; Trypanosoma brucei, 72 h): 21%

IC50 [1, 6]: 1.45 ± 0.07 µg/mL
IC90 [1, 6]: 1.93 ± 0.02 µg/mL
Compound: CCC1(C)CC(C)(C)CC(C)(N)C1 (stereo not drawn) [Compound 615, 1-Amino-1,3,5,5-tetramethyl-3-ethylcyclohexane]

IC50 [1, 4]: 2.23 ± 0.33 µg/mL
IC90 [1, 5]: 3.67 ± 0.06 µg/mL
Compound: CCC[C@H]1CC(C)(C)C[C@](C)(N)C1 (relative stereo) [Compound 635, trans-3-Propyl-1,5,5-trimethylcyclohexylamine]

Compound: CCC[C@H]1CCC[C@](C)(N)C1 (relative stereo) [Compound 627, 1-Amino-1-methyl-3 (trans) propylcyclohexane]
(Inhibition) (5 μg ml^−1) [1]: (17%)

Compound: C[C@H]1CCC[C@](C)(N)C1 (relative stereo) [Compound 625, 1-Amino-1,3 (trans)-dimethylcyclohexane]
(Inhibition) (5 μg ml^−1) [1]: (0%)

IC50 [1, 6]: 0.25 ± 0.01 µg/mL
IC90 [1, 6]: 0.29 ± 0.01 µg/mL
Compound: CCCC1(CCC)CC(C)(C)CC(C)(N)C1 (stereo not drawn) [Compound 626, 1,3,3-Trimethyl-5,5-dipropylcyclohexylamine]

IC50 [1, 6]: 1.54 ± 0.08 µg/mL
IC90 [1, 6]: 2.33 ± 0.24 µg/mL
Compound: CCCC1(C)CCCC(C)(N)C1 (stereo not drawn) [Compound 617, 1-Amino-1,3-dimethyl-3-propylcyclohexane]

Compound: CCC1(C)CC(C)CC(C)(N)C1 (stereo not drawn) [Compound 622, cis-3-Ethyl-1, trans-3, trans-5-trimethylcyclohexamine]
(Inhibition) (5 μg ml^−1) [1]: (40%)

IC50 [1, 4]: 0.57 ± 0.13 µg/mL
IC90 [1, 5]: 0.77 ± 0.15++ μg ml−1
Compound: CCC[C@H]1CC(C)(C)C[C@@](C)(N)C1 (relative stereo) [Compound 634, cis-3-Propyl-1,5,5-trimethylcyclohexylamine]

Compound: C[C@@H]1CC(C)(C)C[C@@](C)(N)C1 (relative stereo) [Compound 607, 1-Amino-1,3,3,5(trans)-tetramethylcyclohexane]
(Inhibition) (5 μg ml^−1) [1]: (17%)

Compound: Nc1nc(N)nc(Nc2ccc([As]3SCC(CO)S3)cc2)n1 (stereo not drawn) [Melarsoprol]
patient mortality due to arsenic encephalopathy [3]: 5 to 10%

IC50 [1, 4]: 2.19 ± 0.69 µg/mL
IC90 [1, 5]: 3.59 ± 0.17 µg/mL
Compound: CCCC1(C)CC(C)CC(C)(N)C1 (stereo not drawn) [Compound 618, 1-Amino-1,3 (trans),5 (trans)-trimethyl-3(cis)-propylcyclohexane]
